Measurements taken from ChEMBL document CHEMBL4385621, “Synthesis and in vitro cytotoxicity evaluation of β-carboline-combretastatin carboxamides as apoptosis inducing agents: DNA intercalation and topoisomerase-II inhibition” (Bioorg Med Chem, 2019).
Activity calls are given as the source filed them. The rule behind the calls is not given here.

Experiments:
HeLa = test: Antiproliferative activity against human HeLa cells assessed as reduction in cell viability after 48 hrs by SRB assay; assay type: functional, cell-based
DU-145 = test: Antiproliferative activity against human DU145 cells assessed as reduction in cell viability after 48 hrs by SRB assay; assay type: functional, cell-based; conditions: DU-145, 48 h
A549 = test: Antiproliferative activity against human A549 cells assessed as reduction in cell viability after 48 hrs by SRB assay; assay type: functional, cell-based; conditions: A549, 48 h
[1] = molecular target: DNA topoisomerase II (Homo sapiens) (UniProt P11388+Q02880); test: Inhibition of human topoisomerase-2 assessed as reduction in decatenation of kDNA at 10 uM incubated for 30 mins by ethidium bromide staining based agarose gel electrophoresis method; assay type: protein assay
Calf thymus DNA [2] = test: Binding affinity to calf thymus DNA assessed as dissociation constant after 5 mins by UV-Visible spectroscopic method; assay type: nucleic-acid assay, Bos taurus
Calf thymus DNA [3] = test: Binding affinity to calf thymus DNA assessed as decrease in emission peak intensity by spectrofluorimetric method; assay type: nucleic-acid assay; conditions: Bos taurus
Calf thymus DNA [4] = test: Binding affinity to calf thymus DNA assessed as decrease in emission peak intensity using varying DNA level by spectrofluorimetric method; assay type: nucleic-acid assay; conditions: Bos taurus
Calf thymus DNA [5] = test: Binding affinity to calf thymus DNA assessed as hypochromicity after 5 mins by UV-Vis absorption spectral analysis; assay type: nucleic-acid assay; conditions: Bos taurus
Calf thymus DNA [6] = test: Binding affinity to calf thymus DNA by circular dichroism spectropolarimetric analysis; assay type: nucleic-acid assay; conditions: Bos taurus

Compound | IC50 (HeLa) [µM] | IC50 (DU-145) [µM] | IC50 (A549) [µM] | inhibition [1] | Activity (Calf thymus DNA [3]) | Activity (Calf thymus DNA [4]) | Activity (Calf thymus DNA [5]) | Activity (Calf thymus DNA [6]) | Kd (Calf thymus DNA [2]) [µM]
COc1cc(/C=C(/C(=O)NCc2cc3c([nH]c4ccccc43)c(-c3cccc(F)c3)n2)c2cc(OC)c(OC)c(OC)c2)cc(OC)c1OC | 23.8 | 9.84 | 12.3 |  |  |  |  |  | 
COc1ccc(/C=C(/C(=O)NCc2cc3c([nH]c4ccccc43)c(-c3cc(OC)c(OC)c(OC)c3)n2)c2cc(OC)c(OC)c(OC)c2)cc1O | 23.1 | 7.88 | 7.55 |  |  |  |  |  | 
COc1ccc(-c2nc(CNC(=O)/C(=C/c3ccc(Cl)cc3)c3cc(OC)c(OC)c(OC)c3)cc3c2[nH]c2ccccc23)cc1 | 37.5 | 13 | 9.65 |  |  |  |  |  | 
COc1ccc(/C=C(/C(=O)NCc2cc3c([nH]c4ccccc43)c(-c3cc(OC)c(OC)c(OC)c3)n2)c2cc(OC)c(OC)c(OC)c2)cc1 | 19.5 | 6.67 | 2.23 |  |  |  |  |  | 
COc1ccc(-c2nc(CNC(=O)/C(=C/c3cc(OC)cc(OC)c3)c3cc(OC)c(OC)c(OC)c3)cc3c2[nH]c2ccccc23)cc1 | 21.7 | 3.09 | 2.76 |  |  |  |  |  | 
COc1ccc(-c2nc(CNC(=O)/C(=C/c3ccc(OC)c(O)c3)c3cc(OC)c(OC)c(OC)c3)cc3c2[nH]c2ccccc23)cc1 | 18 | 10.2 | 3.09 |  |  |  |  |  | 
COc1ccc(-c2nc(CNC(=O)/C(=C/c3ccc(O)c(OC)c3)c3cc(OC)c(OC)c(OC)c3)cc3c2[nH]c2ccccc23)cc1 | 6.31 | 2.81 | 1.79 |  |  |  |  |  | 
COc1cc(/C(=C\c2ccc(C)cc2)C(=O)NCc2cc3c([nH]c4ccccc43)c(-c3cccc(F)c3)n2)cc(OC)c1OC | 14 | 1.81 | 1.31 |  |  |  |  |  | 
COc1ccc(-c2nc(CNC(=O)/C(=C/c3ccc(C(F)(F)F)cc3)c3cc(OC)c(OC)c(OC)c3)cc3c2[nH]c2ccccc23)cc1 | 3.16 | 1.37 | 1.17 | Active | Active | Active | Active | Active | 112
COc1cc(/C(=C\c2cccc(F)c2)C(=O)NCc2cc3c([nH]c4ccccc43)c(-c3cc(OC)c(OC)c(OC)c3)n2)cc(OC)c1OC | 42.2 | 15.8 | 2.08 |  |  |  |  |  | 
COc1ccc(/C=C(/C(=O)NCc2cc3c([nH]c4ccccc43)c(-c3cccc(F)c3)n2)c2cc(OC)c(OC)c(OC)c2)cc1O | 9.68 | 1.87 | 1.62 |  |  |  |  |  | 
COc1ccc(/C=C(/C(=O)NCc2cc3c([nH]c4ccccc43)c(-c3cc(OC)c(OC)c(OC)c3)n2)c2cc(OC)c(OC)c(OC)c2)cc1OC(C)=O | 18 | 7.06 | 1.16 |  |  |  |  |  | 
COc1ccc(-c2nc(CNC(=O)/C(=C/c3ccc(OC)c(OC(C)=O)c3)c3cc(OC)c(OC)c(OC)c3)cc3c2[nH]c2ccccc23)cc1 | 8.41 | 3.54 | 2.75 |  |  |  |  |  | 
COc1ccc(-c2nc(CNC(=O)/C(=C/c3ccc(OC(C)=O)c(OC)c3)c3cc(OC)c(OC)c(OC)c3)cc3c2[nH]c2ccccc23)cc1 | 11.9 | 9.78 | 5.49 |  |  |  |  |  | 
COc1ccc2c(c1)[nH]c1c(C)nccc12 [HARMINE] | 9.66 | 9.63 | 5.89 |  |  |  |  |  | 
CCOc1ccccc1/C=C(/C(=O)NCc1cc2c([nH]c3ccccc32)c(-c2ccc(OC)cc2)n1)c1cc(OC)c(OC)c(OC)c1 | 16.3 | 10.9 | 11.7 |  |  |  |  |  | 
COc1cc(/C(=C\c2ccc(C)cc2)C(=O)NCc2cc3c([nH]c4ccccc43)c(-c3cc(OC)c(OC)c(OC)c3)n2)cc(OC)c1OC | 4.46 | 2.63 | 1.12 |  |  |  |  |  | 
COc1cc(/C=C(/C(=O)NCc2cc3c([nH]c4ccccc43)c(-c3cc(OC)c(OC)c(OC)c3)n2)c2cc(OC)c(OC)c(OC)c2)ccc1O | 40.7 | 13.3 | 5.27 |  |  |  |  |  | 
COc1cc(/C=C(/C(=O)NCc2cc3c([nH]c4ccccc43)c(-c3cccc(F)c3)n2)c2cc(OC)c(OC)c(OC)c2)cc(OC)c1 | 17.2 | 2.57 | 1.99 |  |  |  |  |  | 

Now from value to compound, other results behind:

IC50 (HeLa) [µM] | IC50 (DU-145) [µM] | IC50 (A549) [µM] | inhibition [1] | Activity (Calf thymus DNA [3]) | Activity (Calf thymus DNA [4]) | Activity (Calf thymus DNA [5]) | Activity (Calf thymus DNA [6]) | Compound | Kd (Calf thymus DNA [2]) [µM]
50.1 | 8.35 | 7.08 |  |  |  |  |  | COc1cc(/C=C(/C(=O)NCc2cc3c([nH]c4ccccc43)c(-c3cc(OC)c(OC)c(OC)c3)n2)c2cc(OC)c(OC)c(OC)c2)ccc1OC(C)=O | 
39.5 | 12.6 | 12.9 |  |  |  |  |  | COc1ccc(/C=C(/C(=O)NCc2cc3c([nH]c4ccccc43)c(-c3cccc(F)c3)n2)c2cc(OC)c(OC)c(OC)c2)cc1 | 
14 | 2.18 | 2.95 |  |  |  |  |  | CCOc1ccccc1/C=C(/C(=O)NCc1cc2c([nH]c3ccccc32)c(-c2cccc(F)c2)n1)c1cc(OC)c(OC)c(OC)c1 | 
36.4 | 15.7 | 10.6 |  |  |  |  |  | COc1cc(/C=C(/C(=O)NCc2cc3c([nH]c4ccccc43)c(-c3cc(OC)c(OC)c(OC)c3)n2)c2cc(OC)c(OC)c(OC)c2)cc(OC)c1OC | 
27.6 | 4.07 | 3.54 |  |  |  |  |  | COc1ccc(-c2nc(CNC(=O)/C(=C/c3cccc(F)c3)c3cc(OC)c(OC)c(OC)c3)cc3c2[nH]c2ccccc23)cc1 | 
17.6 | 8.1 | 6.59 |  |  |  |  |  | COc1cc(/C(=C\c2ccc(Cl)cc2)C(=O)NCc2cc3c([nH]c4ccccc43)c(-c3cc(OC)c(OC)c(OC)c3)n2)cc(OC)c1OC | 
18.2 | 16.1 | 18.4 |  |  |  |  |  | CCOc1ccccc1/C=C(/C(=O)NCc1cc2c([nH]c3ccccc32)c(-c2cc(OC)c(OC)c(OC)c2)n1)c1cc(OC)c(OC)c(OC)c1 | 
29.9 | 11.1 | 3.38 |  |  |  |  |  | COc1cc(/C=C(/C(=O)NCc2cc3c([nH]c4ccccc43)c(-c3cc(OC)c(OC)c(OC)c3)n2)c2cc(OC)c(OC)c(OC)c2)cc(OC)c1 | 
19.7 | 3.89 | 2.88 |  |  |  |  |  | COc1cc(/C(=C\c2cccc(F)c2)C(=O)NCc2cc3c([nH]c4ccccc43)c(-c3cccc(F)c3)n2)cc(OC)c1OC | 
26.1 | 11.7 | 14.2 |  |  |  |  |  | COc1cc(/C=C(/C(=O)NCc2cc3c([nH]c4ccccc43)c(-c3cccc(F)c3)n2)c2cc(OC)c(OC)c(OC)c2)ccc1OC(C)=O | 
31.3 | 8.44 | 22.2 |  |  |  |  |  | COc1cc(/C(=C\c2ccc(Cl)cc2)C(=O)NCc2cc3c([nH]c4ccccc43)c(-c3cccc(F)c3)n2)cc(OC)c1OC | 
14.5 | 2.57 | 1.38 |  |  |  |  |  | COc1ccc(-c2nc(CNC(=O)/C(=C/c3ccc(C)cc3)c3cc(OC)c(OC)c(OC)c3)cc3c2[nH]c2ccccc23)cc1 | 
2.66 | 2.47 | 2.17 |  |  |  |  |  | COc1cc([C@@H]2c3cc4c(cc3[C@@H](O[C@@H]3O[C@@H]5CO[C@@H](C)O[C@H]5[C@H](O)[C@H]3O)[C@H]3COC(=O)[C@H]23)OCO4)cc(OC)c1O [ETOPOSIDE] | 
19.1 | 2.44 | 2.55 |  |  |  |  |  | COc1cc(/C=C(/C(=O)NCc2cc3c([nH]c4ccccc43)c(-c3cccc(F)c3)n2)c2cc(OC)c(OC)c(OC)c2)ccc1O | 
13.6 | 2.46 | 3.07 |  |  |  |  |  | COc1ccc(/C=C(/C(=O)NCc2cc3c([nH]c4ccccc43)c(-c3cccc(F)c3)n2)c2cc(OC)c(OC)c(OC)c2)cc1OC(C)=O | 
14.7 | 2.04 | 1.11 |  |  |  |  |  | COc1cc(/C(=C\c2ccc(C(F)(F)F)cc2)C(=O)NCc2cc3c([nH]c4ccccc43)c(-c3cc(OC)c(OC)c(OC)c3)n2)cc(OC)c1OC | 
